From ChEMBL document CHEMBL1125295, “Synthesis and some pharmacological properties of potent and selective antagonists of the vasopressor (V1-receptor) response to arginine-vasopressin” (J Med Chem, 1992)
*1 amine or outer side, *2 acyl side, *3 side chain or, on linkers, in order; H or OH if unused. Where a SMILES comes first, the peptide text is derived from it. Bridges are numbered along the chain shown (N, C = ends). The star is where a group is joined. Ethylenediamine = C(CN[*:2])N[*:1]; X1 = O=C(CC1(S[*:2])CCCCC1)[*:1]; X2 = CC(C)(CC(=O)[*:1])S[*:2]; NHBu = CCCCN*

Legend:
[1] = target: Vasopressin V1 receptor (Rattus norvegicus) (UniProt P48974+P30560); test: Dose that reduces blood pressure response in rats; type: functional
[2] = target: Vasopressin V2 receptor (Rattus norvegicus) (UniProt Q00788); test: Dose that reduces urine flow in water-loaded rats; type: functional
Vasopressin V1 receptor = Vasopressin V1 receptor (Rattus norvegicus, UniProt P48974+P30560); test: In vivo vasopressin V1-antagonistic activity was determined by measuring the blood pressure response in rats.; type: functional, organism-based
[3] = Ratio of antidiuretic V2 effective dose to that of vasopressin V1 effective dose; type: functional, Urine
Vasopressin V2 receptor = Vasopressin V2 receptor (Rattus norvegicus, UniProt Q00788); test: In vivo antidiuretic V2-antagonistic activity was measured as changes in urine flow in water-loaded rats and is expressed as the negative logarithm of the ''effective dose divided by the estimated volume of distribution (67 mL/kg); type: functional, organism-based; conditions: read-out: pA2 (converted)
Vasopressin V2 receptor, sequence (Q00788 whole entry): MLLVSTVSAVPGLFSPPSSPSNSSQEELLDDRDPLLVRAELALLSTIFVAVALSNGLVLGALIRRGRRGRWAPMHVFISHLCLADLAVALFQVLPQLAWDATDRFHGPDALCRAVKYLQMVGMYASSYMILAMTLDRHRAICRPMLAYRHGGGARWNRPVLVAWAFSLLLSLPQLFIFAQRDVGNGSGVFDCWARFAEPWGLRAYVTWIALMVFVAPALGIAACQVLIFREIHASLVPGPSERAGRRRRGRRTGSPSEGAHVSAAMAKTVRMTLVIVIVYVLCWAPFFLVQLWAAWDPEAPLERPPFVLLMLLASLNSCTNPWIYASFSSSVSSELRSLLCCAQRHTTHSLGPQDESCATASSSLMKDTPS

Vasopressin V1 receptor (Rattus norvegicus), sequence (P30560 whole entry, looked up): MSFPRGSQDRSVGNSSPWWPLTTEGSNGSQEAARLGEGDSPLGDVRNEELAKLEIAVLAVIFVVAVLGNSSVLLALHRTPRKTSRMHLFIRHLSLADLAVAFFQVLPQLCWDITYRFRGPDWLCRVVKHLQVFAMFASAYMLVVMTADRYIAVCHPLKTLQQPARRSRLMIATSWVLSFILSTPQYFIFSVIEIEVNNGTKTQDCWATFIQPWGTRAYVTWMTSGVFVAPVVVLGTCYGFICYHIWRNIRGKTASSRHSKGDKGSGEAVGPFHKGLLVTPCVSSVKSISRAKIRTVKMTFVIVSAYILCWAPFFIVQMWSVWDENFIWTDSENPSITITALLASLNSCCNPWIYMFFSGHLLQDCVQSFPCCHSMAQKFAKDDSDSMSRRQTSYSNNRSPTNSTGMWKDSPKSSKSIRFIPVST
Vasopressin V1 receptor (Rattus norvegicus), sequence (P48974 whole entry, looked up): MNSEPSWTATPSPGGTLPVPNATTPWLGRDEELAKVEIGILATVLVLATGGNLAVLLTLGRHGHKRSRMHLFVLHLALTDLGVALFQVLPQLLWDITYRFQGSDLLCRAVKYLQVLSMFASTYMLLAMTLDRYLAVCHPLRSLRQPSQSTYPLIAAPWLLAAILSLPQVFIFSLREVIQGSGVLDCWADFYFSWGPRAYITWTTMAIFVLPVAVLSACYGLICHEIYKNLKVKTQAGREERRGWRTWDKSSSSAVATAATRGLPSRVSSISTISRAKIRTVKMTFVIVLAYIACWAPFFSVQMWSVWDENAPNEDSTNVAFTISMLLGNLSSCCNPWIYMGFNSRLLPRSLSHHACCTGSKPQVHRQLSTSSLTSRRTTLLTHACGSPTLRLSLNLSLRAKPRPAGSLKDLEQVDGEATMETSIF
Vasopressin V2 receptor (Rattus norvegicus), sequence (Q00788 whole entry): as the sequence (Q00788 whole entry) above

C[C@H](NC(=O)[C@H](CCCN=C(N)N)NC(=O)[C@@H]1CCCN1C(=O)[C@H]1CSSC2(CCCCC2)CC(=O)N(C)[C@@H](Cc2ccc(O)cc2)C(=O)N[C@H](Cc2ccccc2)C(=O)N[C@@H](CCC(N)=O)C(=O)N[C@H](CC(N)=O)C(=O)N1)C(N)=O
Effective dose [1]: 0.13 nM/kg
Effective dose [2]: 77 nM/kg

COc1ccc(C[C@@H]2NC(=O)CC(C)(C)SSC[C@@H](C(=O)N3CCC[C@H]3C(=O)N[C@@H](CCCN=C(N)N)C(=O)N[C@H](C(N)=O)[C@@H](C)O)NC(=O)[C@H](CC(N)=O)NC(=O)[C@H](CCC(N)=O)NC(=O)[C@H](Cc3ccccc3)NC2=O)cc1 (Y(Me)FQNCPRT-NH2; linker N-5 via X2)
pA2 (Vasopressin V1 receptor): 8.04

COc1ccc(C[C@@H]2NC(=O)CC3(CCCCC3)SSC[C@@H](C(=O)N3CCC[C@H]3C(=O)N[C@@H](CCCN=C(N)N)C(=O)N[C@@H](Cc3ccc(O)cc3)C(N)=O)NC(=O)[C@H](CC(N)=O)NC(=O)[C@H](CCC(N)=O)NC(=O)[C@H](Cc3ccccc3)NC2=O)cc1 (Y(Me)FQNCPRY-NH2; linker N-5 via X1) [listing 1 of 2 here]
Ratio [3]: ~217

CC(C)[C@H](NC(=O)[C@H](CCCN=C(N)N)NC(=O)[C@@H]1CCCN1C(=O)[C@H]1CSSC2(CCCCC2)CC(=O)N(C)[C@@H](Cc2ccc(O)cc2)C(=O)N[C@H](Cc2ccccc2)C(=O)N[C@@H](CCC(N)=O)C(=O)N[C@H](CC(N)=O)C(=O)N1)C(N)=O
Effective dose [1]: 0.2 nM/kg
Effective dose [2]: 115 nM/kg

COc1ccc(C[C@@H]2NC(=O)CC3(CCCCC3)SSC[C@@H](C(=O)N3CCC[C@H]3C(=O)N[C@@H](CCCN=C(N)N)C(=O)NCC(=O)NCCN)NC(=O)[C@H](CC(N)=O)NC(=O)[C@H](CCC(N)=O)NC(=O)[C@H](Cc3ccccc3)NC2=O)cc1 (Y(Me)FQNCPRG-Ethylenediamine; linker N-5 via X1) [listing 1 of 2 here]
Ratio [3]: ~60

COc1ccc(C[C@@H]2NC(=O)CC3(CCCCC3)SSC[C@@H](C(=O)N3CCC[C@H]3C(=O)N[C@@H](CCCN=C(N)N)C(=O)N[C@H](C(N)=O)C(C)C)NC(=O)[C@H](CC(N)=O)NC(=O)[C@H](CCC(N)=O)NC(=O)[C@H](Cc3ccccc3)NC2=O)cc1 (Y(Me)FQNCPRV-NH2; linker N-5 via X1) [listing 1 of 2 here]
Ratio [3]: ~575

COc1ccc(C[C@@H]2NC(=O)CC3(CCCCC3)SSC[C@@H](C(=O)N3CCC[C@H]3C(=O)N[C@@H](CCCN=C(N)N)C(=O)N[C@@H](CCCN=C(N)N)C(N)=O)NC(=O)[C@H](CC(N)=O)NC(=O)[C@H](CCC(N)=O)NC(=O)[C@H](Cc3ccccc3)NC2=O)cc1 (Y(Me)FQNCPRR-NH2; linker N-5 via X1)
Kb (Vasopressin V2 receptor): ~219 nM
pA2 (Vasopressin V1 receptor): 8.78

COc1ccc(C[C@@H]2NC(=O)CC(C)(C)SSC[C@@H](C(=O)N3CCC[C@H]3C(=O)N[C@@H](CCCN=C(N)N)C(=O)N[C@H](C(N)=O)C(C)C)NC(=O)[C@H](CC(N)=O)NC(=O)[C@H](CCC(N)=O)NC(=O)[C@H](Cc3ccccc3)NC2=O)cc1 (Y(Me)FQNCPRV-NH2; linker N-5 via X2)
pA2 (Vasopressin V1 receptor): 8.05

COc1ccc(C[C@@H]2NC(=O)CC3(CCCCC3)SSC[C@@H](C(=O)N3CCC[C@H]3C(=O)N[C@@H](CCCN=C(N)N)C(=O)N[C@H](C(N)=O)[C@@H](C)O)NC(=O)[C@H](CC(N)=O)NC(=O)[C@H](CCC(N)=O)NC(=O)[C@H](Cc3ccccc3)NC2=O)cc1 (Y(Me)FQNCPRT-NH2; linker N-5 via X1) [listing 1 of 2 here]
Ratio [3]: ~205

COc1ccc(C[C@@H]2NC(=O)CC3(CCCCC3)SSC[C@@H](C(=O)N3CCC[C@H]3C(=O)N[C@@H](CCCN=C(N)N)C(=O)N[C@H](C(N)=O)C(C)C)NC(=O)[C@H](CC(N)=O)NC(=O)[C@H](CCC(N)=O)NC(=O)[C@H](Cc3ccccc3)NC2=O)cc1 (Y(Me)FQNCPRV-NH2; linker N-5 via X1) [listing 2 of 2 here]
Kb (Vasopressin V2 receptor): ~1580 nM
pA2 (Vasopressin V1 receptor): 8.57

COc1ccc(C[C@@H]2NC(=O)CC(C)(C)SSC[C@@H](C(=O)N3CCC[C@H]3C(=O)N[C@@H](CCCN=C(N)N)C(=O)N[C@@H](CCCN=C(N)N)C(N)=O)NC(=O)[C@H](CC(N)=O)NC(=O)[C@H](CCC(N)=O)NC(=O)[C@H](Cc3ccccc3)NC2=O)cc1 (Y(Me)FQNCPRR-NH2; linker N-5 via X2)
pA2 (Vasopressin V1 receptor): 8.52

CNC(=O)[C@H](CCCN=C(N)N)NC(=O)[C@@H]1CCCN1C(=O)[C@H]1CSSC2(CCCCC2)CC(=O)N(C)[C@@H](Cc2ccc(O)cc2)C(=O)N[C@H](Cc2ccccc2)C(=O)N[C@@H](CCC(N)=O)C(=O)N[C@H](CC(N)=O)C(=O)N1
Effective dose [1]: 0.12 nM/kg
Effective dose [2]: 84 nM/kg

CNC(=O)[C@H](CCCN=C(N)N)NC(=O)[C@@H]1CCCN1C(=O)[C@@H]1CSSC2(CCCCC2)CC(=O)N[C@@H](Cc2ccc(OC)cc2)C(=O)N[C@@H](Cc2ccccc2)C(=O)N[C@@H](CCC(N)=O)C(=O)N[C@@H](CC(N)=O)C(=O)N1 (Y(Me)FQNCPR-NHMe; linker N-5 via X1) [listing 1 of 2 here]
Kb (Vasopressin V2 receptor): ~1260 nM
pA2 (Vasopressin V1 receptor): 8.73

COc1ccc(C[C@@H]2NC(=O)CC(C)(C)SSC[C@@H](C(=O)N3CCC[C@H]3C(=O)N[C@@H](CCCN=C(N)N)C(=O)N[C@@H](C)C(N)=O)NC(=O)[C@H](CC(N)=O)NC(=O)[C@H](CCC(N)=O)NC(=O)[C@H](Cc3ccccc3)NC2=O)cc1 (Y(Me)FQNCPRA-NH2; linker N-5 via X2)
pA2 (Vasopressin V1 receptor): 8.16

C[C@H](O)[C@H](NC(=O)[C@H](CCCN=C(N)N)NC(=O)[C@@H]1CCCN1C(=O)[C@H]1CSSC2(CCCCC2)CC(=O)N(C)[C@@H](Cc2ccc(O)cc2)C(=O)N[C@H](Cc2ccccc2)C(=O)N[C@@H](CCC(N)=O)C(=O)N[C@H](CC(N)=O)C(=O)N1)C(N)=O
Effective dose [1]: 0.22 nM/kg
Effective dose [2]: 45 nM/kg

COc1ccc(C[C@@H]2NC(=O)CC3(CCCCC3)SSC[C@@H](C(=O)N3CCC[C@H]3C(=O)N[C@@H](CCCN=C(N)N)C(=O)N[C@H](C(N)=O)[C@@H](C)O)NC(=O)[C@H](CC(N)=O)NC(=O)[C@H](CCC(N)=O)NC(=O)[C@H](Cc3ccccc3)NC2=O)cc1 (Y(Me)FQNCPRT-NH2; linker N-5 via X1) [listing 2 of 2 here]
Kb (Vasopressin V2 receptor): ~631 nM
pA2 (Vasopressin V1 receptor): 8.49

COc1ccc(C[C@@H]2NC(=O)CC(C)(C)SSC[C@@H](C(=O)N3CCC[C@H]3C(=O)N[C@@H](CCCN=C(N)N)C(=O)NCC(N)=O)NC(=O)[C@H](CC(N)=O)NC(=O)[C@H](CCC(N)=O)NC(=O)[C@H](Cc3ccccc3)NC2=O)cc1 [DP[TYR(ME)2]AVP] (Y(Me)FQNCPRG-NH2; linker N-5 via X2)
pA2 (Vasopressin V1 receptor): 7.96

COc1ccc(C[C@@H]2NC(=O)CC3(CCCCC3)SSC[C@@H](C(=O)N3CCC[C@H]3C(=O)N[C@@H](CCCN=C(N)N)C(=O)N[C@@H](C)C(N)=O)NC(=O)[C@H](CC(N)=O)NC(=O)[C@H](CCC(N)=O)NC(=O)[C@H](Cc3ccccc3)NC2=O)cc1 (Y(Me)FQNCPRA-NH2; linker N-5 via X1) [listing 1 of 2 here]
Kb (Vasopressin V2 receptor): ~1000 nM
pA2 (Vasopressin V1 receptor): 8.75

COc1ccc(C[C@@H]2NC(=O)CC3(CCCCC3)SSC[C@@H](C(=O)N3CCC[C@H]3C(=O)N[C@@H](CCCN=C(N)N)C(=O)N[C@@H](C)C(N)=O)NC(=O)[C@H](CC(N)=O)NC(=O)[C@H](CCC(N)=O)NC(=O)[C@H](Cc3ccccc3)NC2=O)cc1 (Y(Me)FQNCPRA-NH2; linker N-5 via X1) [listing 2 of 2 here]
Ratio [3]: ~590

COc1ccc(C[C@@H]2NC(=O)CC3(CCCCC3)SSC[C@@H](C(=O)N3CCC[C@H]3C(=O)N[C@@H](CCCN=C(N)N)C(=O)NCCN)NC(=O)[C@H](CC(N)=O)NC(=O)[C@H](CCC(N)=O)NC(=O)[C@H](Cc3ccccc3)NC2=O)cc1 (Y(Me)FQNCPR-Ethylenediamine; linker N-5 via X1) [listing 1 of 2 here]
Ratio [3]: ~275

COc1ccc(C[C@@H]2NC(=O)CC3(CCCCC3)SSC[C@@H](C(=O)N3CCC[C@H]3C(=O)N[C@@H](CCCN=C(N)N)C(=O)NCCN)NC(=O)[C@H](CC(N)=O)NC(=O)[C@H](CCC(N)=O)NC(=O)[C@H](Cc3ccccc3)NC2=O)cc1 (Y(Me)FQNCPR-Ethylenediamine; linker N-5 via X1) [listing 2 of 2 here]
Kb (Vasopressin V2 receptor): ~501 nM
pA2 (Vasopressin V1 receptor): 8.75

COc1ccc(C[C@@H]2NC(=O)CC(C)(C)SSC[C@@H](C(=O)N3CCC[C@H]3C(=O)N[C@@H](CCCN=C(N)N)C(=O)N[C@@H](Cc3ccc(O)cc3)C(N)=O)NC(=O)[C@H](CC(N)=O)NC(=O)[C@H](CCC(N)=O)NC(=O)[C@H](Cc3ccccc3)NC2=O)cc1 (Y(Me)FQNCPRY-NH2; linker N-5 via X2)
pA2 (Vasopressin V1 receptor): 8.25

CNC(=O)[C@H](CCCN=C(N)N)NC(=O)[C@@H]1CCCN1C(=O)[C@@H]1CSSC2(CCCCC2)CC(=O)N[C@@H](Cc2ccc(OC)cc2)C(=O)N[C@@H](Cc2ccccc2)C(=O)N[C@@H](CCC(N)=O)C(=O)N[C@@H](CC(N)=O)C(=O)N1 (Y(Me)FQNCPR-NHMe; linker N-5 via X1) [listing 2 of 2 here]
Ratio [3]: ~700

COc1ccc(C[C@@H]2NC(=O)CC3(CCCCC3)SSC[C@@H](C(=O)N3CCC[C@H]3C(=O)N[C@@H](CCCN=C(N)N)C(=O)NCC(N)=O)NC(=O)[C@H](CC(N)=O)NC(=O)[C@H](CCC(N)=O)NC(=O)[C@H](Cc3ccccc3)NC2=O)cc1 (Y(Me)FQNCPRG-NH2; linker N-5 via X1)
pA2 (Vasopressin V1 receptor): 8.62

COc1ccc(C[C@@H]2NC(=O)CC3(CCCCC3)SSC[C@@H](C(=O)N3CCC[C@H]3C(=O)N[C@@H](CCCN=C(N)N)C(=O)N[C@@H](Cc3ccc(O)cc3)C(N)=O)NC(=O)[C@H](CC(N)=O)NC(=O)[C@H](CCC(N)=O)NC(=O)[C@H](Cc3ccccc3)NC2=O)cc1 (Y(Me)FQNCPRY-NH2; linker N-5 via X1) [listing 2 of 2 here]
Kb (Vasopressin V2 receptor): ~1000 nM
pA2 (Vasopressin V1 receptor): 8.47

COc1ccc(C[C@@H]2NC(=O)CC3(CCCCC3)SSC[C@@H](C(=O)N3CCC[C@H]3C(=O)N[C@@H](CCCN=C(N)N)C(=O)NCC(=O)NCCN)NC(=O)[C@H](CC(N)=O)NC(=O)[C@H](CCC(N)=O)NC(=O)[C@H](Cc3ccccc3)NC2=O)cc1 (Y(Me)FQNCPRG-Ethylenediamine; linker N-5 via X1) [listing 2 of 2 here]
Kb (Vasopressin V2 receptor): ~251 nM
pA2 (Vasopressin V1 receptor): 8.39

CCCCNC(=O)CNC(=O)[C@H](CCCN=C(N)N)NC(=O)[C@@H]1CCCN1C(=O)[C@@H]1CSSC2(CCCCC2)CC(=O)N[C@@H](Cc2ccc(OC)cc2)C(=O)N[C@@H](Cc2ccccc2)C(=O)N[C@@H](CCC(N)=O)C(=O)N[C@@H](CC(N)=O)C(=O)N1 (Y(Me)FQNCPRG-NHBu; linker N-5 via X1)
pA2 (Vasopressin V1 receptor): 8.44
